The source of these data is patent US5171750A (priority 1991, dated 1992).

By IC50 is commonly meant the concentration that gives 50% inhibition.

Assay [1] concerns neuromuscular AChR. The conditions noted are these: cited from earlier work.
For assay [2], the target named is human erythrocyte AChE (Homo sapiens, UniProt P22303). The assay is described as follows: biochemical. Format: biochemical.
For assay [3], the target named is plasma BChE (Homo sapiens, UniProt P06276). Kind of assay: biochemical.

Where two headings read alike, the source gives them in different places.

human erythrocyte AChE, sequence (P22303-2 with tags, fused parts or gaps limits assumed): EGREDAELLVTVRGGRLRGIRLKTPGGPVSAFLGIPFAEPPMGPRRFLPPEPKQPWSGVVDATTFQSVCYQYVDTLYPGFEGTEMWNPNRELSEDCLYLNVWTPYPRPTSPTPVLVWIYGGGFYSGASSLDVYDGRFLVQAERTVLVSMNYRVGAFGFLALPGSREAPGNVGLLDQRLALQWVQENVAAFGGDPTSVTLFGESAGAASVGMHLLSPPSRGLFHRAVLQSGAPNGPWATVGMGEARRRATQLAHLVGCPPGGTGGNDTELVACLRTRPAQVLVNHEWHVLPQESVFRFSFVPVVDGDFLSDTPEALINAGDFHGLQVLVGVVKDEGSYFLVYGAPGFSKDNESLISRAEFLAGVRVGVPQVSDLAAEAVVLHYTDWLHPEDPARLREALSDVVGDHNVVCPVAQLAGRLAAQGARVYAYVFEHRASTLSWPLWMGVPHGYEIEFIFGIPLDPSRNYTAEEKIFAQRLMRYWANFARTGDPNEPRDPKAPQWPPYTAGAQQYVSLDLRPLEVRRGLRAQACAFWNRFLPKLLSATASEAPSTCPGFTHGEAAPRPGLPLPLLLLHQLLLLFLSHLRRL
plasma BChE, sequence (P06276 29-602): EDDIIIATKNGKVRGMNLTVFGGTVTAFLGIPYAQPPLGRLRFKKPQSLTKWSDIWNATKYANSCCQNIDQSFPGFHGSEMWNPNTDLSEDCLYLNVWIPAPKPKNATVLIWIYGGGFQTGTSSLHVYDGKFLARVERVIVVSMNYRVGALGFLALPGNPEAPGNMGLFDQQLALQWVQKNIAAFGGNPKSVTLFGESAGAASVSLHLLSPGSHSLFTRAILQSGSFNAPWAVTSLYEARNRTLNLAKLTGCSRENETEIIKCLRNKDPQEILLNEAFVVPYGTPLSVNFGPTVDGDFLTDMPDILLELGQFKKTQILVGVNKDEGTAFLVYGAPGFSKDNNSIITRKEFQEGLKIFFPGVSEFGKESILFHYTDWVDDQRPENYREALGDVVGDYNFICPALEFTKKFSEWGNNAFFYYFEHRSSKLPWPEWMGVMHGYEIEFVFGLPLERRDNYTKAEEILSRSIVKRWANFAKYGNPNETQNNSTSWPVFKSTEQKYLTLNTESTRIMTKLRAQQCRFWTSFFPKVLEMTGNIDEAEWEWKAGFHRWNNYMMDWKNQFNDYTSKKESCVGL

With `CNC(=O)Oc1ccc2c(c1)[C@]1(C)CCN(C)[C@@H]1N2C` [(1) (-)-physostigmne, (-)-physostigmine], the “properties at the neuromuscular AChR, in words” value in assay [1] is given as “blocking properties as well as agonist properties at the neuromuscular AChR”.

With `CN1CC[C@@]2(C)c3cc(OC(=O)Nc4ccccc4Cl)ccc3N(C)[C@@H]12` [Ex. 17, (-)-2'-chlorophenylcarbamoyleseroline], the IC50 in assay [2] worked out at 496 ± 28.2 nM; in assay [3], 1610 ± 86.4 nM.

Consider `CN1CC[C@@]2(C)c3cc(OC(=O)Nc4ccccc4)ccc3N(C)[C@@H]12` [Ex. 14, (-)-phenylcarbamoyleserolne], for which the “lower concentration for inhibition of AChE than of BChE” value in assay [2] (human) is on record as 50 times.

Regarding `CN1CC[C@@]2(C)c3cc(OC(=O)Nc4c(Cl)cccc4Cl)ccc3N(C)[C@@H]12` [Ex. 18, (-)-2',6'-dichlorophenylcarbamoylseroline], the values for the half-inhibitory concentration (IC50) in assay [2] and in assay [3] were 66.6 ± 1.8 nM and 425 ± 86.4 nM, respectively.

For the compound `Cc1ccccc1NC(=O)Oc1ccc2c(c1)[C@]1(C)CCO[C@@H]1N2C` [Ex. 23, (-)-5-O-(2'-Methylphenylcarbamoyl)physovenol], the IC50 was determined as 12.9 ± 0.8 nM in assay [2] (pH 8, read-out: AChE IC50) and 1560 ± 120 nM in assay [3] (pH 8, read-out: BChE IC50).

As to `CCc1ccccc1NC(=O)Oc1ccc2c(c1)[C@]1(C)CCN(C)[C@@H]1N2C` [Ex. 12, (-)-2'-ethylphenylcarbamoyleseroline], the 50% inhibitory concentration (IC50) in assay [2] came to 9.7 ± 0.1 nM; in assay [3] (pH 8, read-out: BChE IC50), 2920 ± 537 nM.

With `CCc1cccc(CC)c1NC(=O)Oc1ccc2c(c1)[C@]1(C)CCN(C)[C@@H]1N2C` [Ex. 11, (-)-2',6-diethylphenylcarbamoylescroline], the IC50 is 1490 ± 49.8 nM in assay [2] (pH 8, read-out: AChE IC50) and 1070 ± 48 nM in assay [3].

With `Cc1ccc(NC(=O)Oc2ccc3c(c2)[C@]2(C)CCN(C)[C@@H]2N3C)c(C)c1` [Ex. 8, (-)-2'-4'-dimethylphenylcarbamoyleseroline], the 50% inhibitory concentration (IC50) in assay [2] was 13.6 ± 1 nM; in assay [3] (pH 8, read-out: BChE IC50), 1820 ± 558 nM.

Turning to `CNC(=O)Oc1ccc2c(c1)[C@]1(C)CCO[C@@H]1N2C` [(3) (-)-physovenine, (-)-physovenine, reference compound], the “enzyme selectivity / preference (AChE vs BChE), in words” value (from here on “enzyme selectivity / preference”) in assay [2] was “inhibited AChE and BChE in vitro similarly at similar concentrations”. Also, the IC50 in assay [2] (pH 8, read-out: AChE IC50) was 27.1 ± 0.8 nM; in assay [3], 3.5 ± 1.4 nM.

As for `Cc1ccccc1NC(=O)Oc1ccc2c(c1)[C@]1(C)CCN(C)[C@@H]1N2C` [Ex. 7, (-)-2'-Methylphenylcarbamoyleseroline], in assay [2] (pH 8, read-out: AChE IC50), the 50% inhibitory concentration (IC50) stood at 10.3 ± 1.6 nM.

With `CN1c2ccc(OC(=O)Nc3ccccc3)cc2[C@]2(C)CCO[C@H]12` [Ex. 22, phenylcarbamate of (-)-physovenol], in assay [2], the “enzyme selectivity / preference” value is “high preference for Ache”. The IC50 in assay [2] (AChE IC50) came out at 11.2 ± 2.1 nM; in assay [2] (IC50 for AChE) it was 11 nM; in assay [3] it was 700 ± 37 nM.

As for `CC(C)c1ccc(NC(=O)Oc2ccc3c(c2)[C@]2(C)CCO[C@@H]2N3C)cc1` [compound 24], the “enzyme selectivity / preference” value in assay [2] is given as “reverse enzyme specificity”. Moreover, the figures for the 50% inhibitory concentration (IC50) in assay [2] (read-out: IC50 for AChE) and in assay [3] (read-out: IC50 for BChE (printed once as RChE)) were 3800 nM and 16.5 nM, respectively.

Take `Cc1ccc(NC(=O)Oc2ccc3c(c2)[C@]2(C)CCN(C)[C@@H]2N3C)cc1` [Ex. 10, (-)-4'-methylphenylarbamoyleseroline]: the IC50 in assay [2] (pH 8, read-out: AChE IC50) was found to be 139 ± 3.7 nM; in assay [3] (pH 8, read-out: BChE IC50), 251 ± 8.6 nM.

`Cc1cc(C)c(NC(=O)Oc2ccc3c(c2)[C@]2(C)CCN(C)[C@@H]2N3C)c(C)c1` [Ex. 15, (-)-(-)-2',4',6'-trimethylphenylcarbamoyleseroline]: the IC50 in assay [2] (pH 8, read-out: AChE IC50) was 1290 ± 73.8 nM; in assay [3] (pH 8, read-out: BChE IC50), 3290 ± 885 nM.
